Source: ChEMBL document CHEMBL2074482 (J Pharmacol Sci, 2004)

Key:
[1] = target: T1, Solute carrier family 22 member 11 (Homo sapiens, UniProt Q9NSA0); experiment: TP_TRANSPORTER: inhibition of ES uptake (ES: 50nM) in hOAT4-expressing S2 cells; assay type: functional, cell-based
T1 sequence (Q9NSA0 whole entry): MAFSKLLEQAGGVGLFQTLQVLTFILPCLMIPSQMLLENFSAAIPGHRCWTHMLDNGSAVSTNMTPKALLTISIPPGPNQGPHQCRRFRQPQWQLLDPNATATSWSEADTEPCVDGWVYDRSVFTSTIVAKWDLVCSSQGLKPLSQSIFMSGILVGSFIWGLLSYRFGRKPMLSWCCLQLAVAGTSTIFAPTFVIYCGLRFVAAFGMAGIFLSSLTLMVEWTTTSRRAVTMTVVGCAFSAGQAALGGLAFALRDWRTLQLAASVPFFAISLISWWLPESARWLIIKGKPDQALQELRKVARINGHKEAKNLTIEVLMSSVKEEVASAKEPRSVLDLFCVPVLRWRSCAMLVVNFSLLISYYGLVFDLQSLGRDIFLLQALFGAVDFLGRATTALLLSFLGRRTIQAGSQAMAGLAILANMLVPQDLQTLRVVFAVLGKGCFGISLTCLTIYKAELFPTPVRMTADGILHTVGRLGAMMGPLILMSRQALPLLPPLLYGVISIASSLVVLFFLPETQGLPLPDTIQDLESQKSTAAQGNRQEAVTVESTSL

[2] = target: T2, Organic anion transporter 3 (Homo sapiens, UniProt Q8TCC7); experiment: TP_TRANSPORTER: inhibition of ES uptake (ES: 50nM) in hOAT3-expressing S2 cells; assay type: functional, cell-based
T2 sequence (Q8TCC7 whole entry): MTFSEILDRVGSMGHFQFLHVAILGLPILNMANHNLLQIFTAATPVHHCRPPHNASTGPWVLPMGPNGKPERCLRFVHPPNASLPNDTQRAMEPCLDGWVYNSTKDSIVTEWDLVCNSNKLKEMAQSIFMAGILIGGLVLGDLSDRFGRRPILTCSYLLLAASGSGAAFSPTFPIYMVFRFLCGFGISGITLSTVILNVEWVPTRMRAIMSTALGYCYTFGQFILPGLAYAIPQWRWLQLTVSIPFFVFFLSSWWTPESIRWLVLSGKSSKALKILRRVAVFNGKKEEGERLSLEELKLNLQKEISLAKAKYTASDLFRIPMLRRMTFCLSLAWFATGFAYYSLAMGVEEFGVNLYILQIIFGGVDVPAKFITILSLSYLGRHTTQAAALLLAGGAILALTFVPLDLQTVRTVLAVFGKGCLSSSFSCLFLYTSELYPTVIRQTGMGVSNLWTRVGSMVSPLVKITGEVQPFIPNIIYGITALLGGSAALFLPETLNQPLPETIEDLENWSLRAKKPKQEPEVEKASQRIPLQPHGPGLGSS

[3] = target: T3, Organic anion transporter 3 (Rattus norvegicus, UniProt Q9R1U7); experiment: TP_TRANSPORTER: inhibition of ES uptake (ES: 50nM) in rOAT3-expressing S2 cells; assay type: functional, cell-based
T3 sequence (Q9R1U7 whole entry): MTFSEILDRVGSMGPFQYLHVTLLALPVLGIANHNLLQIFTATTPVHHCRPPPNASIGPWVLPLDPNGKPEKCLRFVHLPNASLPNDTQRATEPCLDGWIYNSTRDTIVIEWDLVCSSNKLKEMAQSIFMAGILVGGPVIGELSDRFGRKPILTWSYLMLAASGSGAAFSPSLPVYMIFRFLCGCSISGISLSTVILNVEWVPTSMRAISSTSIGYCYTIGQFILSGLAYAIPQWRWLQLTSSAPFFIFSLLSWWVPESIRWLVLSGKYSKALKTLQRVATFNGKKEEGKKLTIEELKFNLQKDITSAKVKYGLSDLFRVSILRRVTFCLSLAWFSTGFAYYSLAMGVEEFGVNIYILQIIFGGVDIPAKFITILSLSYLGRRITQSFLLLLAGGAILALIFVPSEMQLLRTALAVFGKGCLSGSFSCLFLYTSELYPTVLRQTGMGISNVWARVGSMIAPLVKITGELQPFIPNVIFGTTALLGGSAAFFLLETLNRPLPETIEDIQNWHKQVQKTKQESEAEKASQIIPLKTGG

[4] = target: T4, Solute carrier family 22 member 6 (Rattus norvegicus, UniProt O35956)
T4 sequence (O35956 whole entry): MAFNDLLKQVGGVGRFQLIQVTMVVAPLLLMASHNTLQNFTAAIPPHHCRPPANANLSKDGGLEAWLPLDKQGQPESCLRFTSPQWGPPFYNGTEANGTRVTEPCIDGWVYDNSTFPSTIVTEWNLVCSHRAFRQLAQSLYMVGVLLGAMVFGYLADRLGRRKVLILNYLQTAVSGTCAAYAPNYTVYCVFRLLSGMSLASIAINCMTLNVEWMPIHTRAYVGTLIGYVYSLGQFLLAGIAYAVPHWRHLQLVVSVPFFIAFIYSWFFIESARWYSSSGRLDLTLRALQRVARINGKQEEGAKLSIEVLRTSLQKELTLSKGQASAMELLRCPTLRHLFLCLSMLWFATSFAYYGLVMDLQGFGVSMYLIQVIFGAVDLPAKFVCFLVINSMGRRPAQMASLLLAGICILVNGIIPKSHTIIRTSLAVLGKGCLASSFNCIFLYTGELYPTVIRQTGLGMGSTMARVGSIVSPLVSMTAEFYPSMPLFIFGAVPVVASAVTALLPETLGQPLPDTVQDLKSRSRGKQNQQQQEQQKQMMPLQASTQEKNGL

[5] = target: T5, Solute carrier family 22 member 7 (Rattus norvegicus, UniProt Q5RLM2); experiment: TP_TRANSPORTER: inhibition of PGF2alpha uptake (PGF2: 50nM) in rOAT2-expressing S2 cells; assay type: functional, cell-based
T5 sequence (Q5RLM2 whole entry): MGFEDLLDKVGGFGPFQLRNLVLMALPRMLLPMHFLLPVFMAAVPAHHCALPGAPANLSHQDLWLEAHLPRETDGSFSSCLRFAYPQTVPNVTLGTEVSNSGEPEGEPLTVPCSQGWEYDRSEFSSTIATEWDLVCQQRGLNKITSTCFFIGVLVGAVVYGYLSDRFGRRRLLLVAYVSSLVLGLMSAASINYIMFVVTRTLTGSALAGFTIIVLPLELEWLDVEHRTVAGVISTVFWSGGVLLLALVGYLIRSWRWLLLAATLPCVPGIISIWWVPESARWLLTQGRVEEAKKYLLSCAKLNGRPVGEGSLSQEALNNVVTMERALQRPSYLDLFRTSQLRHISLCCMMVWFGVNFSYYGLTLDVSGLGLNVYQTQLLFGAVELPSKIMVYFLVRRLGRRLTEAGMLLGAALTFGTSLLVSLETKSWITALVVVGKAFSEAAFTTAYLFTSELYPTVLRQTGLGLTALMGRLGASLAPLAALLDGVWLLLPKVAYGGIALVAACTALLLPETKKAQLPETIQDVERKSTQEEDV

[6] = target: T6, Solute carrier family 22 member 7 (Homo sapiens, UniProt Q9Y694); experiment: TP_TRANSPORTER: inhibition of PGF2alpha uptake (PGF2: 50nM) in hOAT2-expressing S2 cells; assay type: functional, cell-based
T6 sequence (Q9Y694 whole entry): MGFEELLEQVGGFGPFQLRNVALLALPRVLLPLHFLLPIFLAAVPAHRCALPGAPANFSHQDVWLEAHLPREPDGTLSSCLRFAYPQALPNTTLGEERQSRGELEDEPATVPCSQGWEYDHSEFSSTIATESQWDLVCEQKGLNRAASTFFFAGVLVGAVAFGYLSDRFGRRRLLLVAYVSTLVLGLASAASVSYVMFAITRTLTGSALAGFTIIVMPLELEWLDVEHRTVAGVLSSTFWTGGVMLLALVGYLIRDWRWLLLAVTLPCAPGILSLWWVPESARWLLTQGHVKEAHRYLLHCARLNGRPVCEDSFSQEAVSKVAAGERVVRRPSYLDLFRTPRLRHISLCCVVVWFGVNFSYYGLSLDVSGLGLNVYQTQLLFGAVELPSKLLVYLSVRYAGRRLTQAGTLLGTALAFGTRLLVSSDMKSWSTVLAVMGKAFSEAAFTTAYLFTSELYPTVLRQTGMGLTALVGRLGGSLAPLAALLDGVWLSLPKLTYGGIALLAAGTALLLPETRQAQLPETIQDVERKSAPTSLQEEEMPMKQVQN

`O=C(O)CCNC(=O)c1ccccc1` [BETAMIPRON] was tested, and the IC50 [1] was 483 µM, the IC50 [2] was 9.92 µM and the IC50 [3] was 47.5 µM.

`CC1(C)C[C@@H]1C(=O)N/C(=C\CCCCSC[C@H](N)C(=O)O)C(=O)O` [CILASTATIN] was tested, and the IC50 [2] was 249 µM and the IC50 [3] was 742 µM.

With `CN/C(=N/CCSCc1nc[nH]c1C)NC#N` [CIMETIDINE] the IC50 [1] was > 2000 µM, the IC50 [4] was > 2000 µM and the IC50 [2] was 92.4 µM. It also gave an IC50 [3] of 166 µM.

With `CC[C@H](C)C(=O)O[C@H]1C[C@H](O)C=C2C=C[C@H](C)[C@H](CC[C@@H](O)C[C@@H](O)CC(=O)O)[C@H]21` [PRAVASTATIN] the IC50 [5] was 449 µM, the IC50 [6] was 352 µM and the IC50 [1] was 591 µM. It also gave an IC50 [2] of 13.7 µM and an IC50 [3] of 15.6 µM.

`CCCN(CCC)S(=O)(=O)c1ccc(C(=O)O)cc1` [PROBENECID] gave an IC50 [5] of 977 µM, an IC50 [6] of 668 µM and an IC50 [3] of 6.03 µM.
